Reference: patent publication US11987540B2, “Crystalline solids of 3-palmitoyl-amido-1,2-propanediol and 3-palmitoyl-amido-2-hydroxy-1-dimethoxytriphenylmethylether-propane and methods of making and using the same” (Geron Corporation, priority 2019, dated 2024)

Assays:
[1] = Screening of the solubility in various solvents and solvent mixtures; type: physicochemical
Description: A screening of the solubility of 3-palmitoyl-amido-1,2-propanediol was conducted with various solvents and solvent mixtures. Tetrahydrofuran (THF), 2-methyl-THF, dichloromethane (DCM), N-methyl-2-pyrrolidone (NMP), dimethylacetamide (DMAc), toluene, 2-methylbutan-2-ol (tAmOH), isopropylacetate (iPrOAc), dimethylsulfoxide (DMSO) and dimethylformamide (DMF) were identified as solvents for use in the studies. The effect of triethylamine on the solubility was also evaluated.

[2] = Solubility (dissolution) of the new crystalline polymorph used as substrate; type: physicochemical; conditions: polymorph from THF, 2-methyl-THF or DCM with triethylamine, heat/cool crystallization
Description: Crystalline solids were identified as a new polymorph of 3-palmitoyl-amido-1,2-propanediol using THF, 2-methyl-THF or DCM with triethylamine during a heat/cool induced crystallization. The heat/cool crystallization included solubilizing 3-palmitoyl-amido-1,2-propanediol in a solution of THF, and heating and maintaining the composition at 50° C. overnight. For 2-methyl-THF or DCM, the solution with palmitoyl-amido-1,2-propanediol was heated to 60° C. overnight to produce a solution. After cooling the samples back to 30° C., crystalline solids formed as slurries in the solutions of THF, 2-methyl-THF and DCM.

telomerase = conditions: cited from earlier work
[3] = system: cancer cell lines and human tumors; conditions: multitude of different cancer cell lines and human tumors; cited from earlier work
myelofibrosis = conditions: cited from earlier work
[4] = system: template region of the RNA component of telomerase; conditions: cited from earlier work

For `CCCCCCCCCCCCCCCC(=O)NCC(O)CO` (stereo not shown) [3-palmitoyl-amido-1,2-propanediol], the “effect of triethylamine on the solubility” value ([1]; in the screened solvents (THF, 2-methyl-THF, DCM, NMP, DMAc, toluene, tAmOH, iPrOAc, DMSO, DMF)) was “small effect”, the solubility ([1]; solvent dimethylacetamide (DMAc)) was “moderate solubility” and the solubility ([1]; solvent dimethylformamide (DMF)) was “moderate solubility”. For the same compound, the solubility ([1]; solvent dimethylsulfoxide (DMSO)) was “moderate solubility” and the “solubility of the polymorph” value [2] was “faster solubility”.
In the case of Imetelstat, the telomerase activity (telomerase) is listed as “inhibits telomerase activity”, the cell proliferation [3] is listed as “effective against cell proliferation” and the bone marrow fibrosis (myelofibrosis; patients with myelofibrosis in complete remission) is listed as “reversal of bone marrow fibrosis”. For the same compound, the clinical remission (myelofibrosis; patients with myelofibrosis) was “complete clinical remissions in certain patients” and the binding affinity [4] was “high affinity”.
